Here are results for 27 compounds from ChEMBL document CHEMBL2440091, “The enzyme 3-hydroxykynurenine transaminase as potential target for 1,2,4-oxadiazoles with larvicide activity against the dengue vector Aedes aegypti” (2013).

≈ marks a conversion by molar mass, not a printed value. Calls of active or inactive are those of the source. The calls are words filed in the database; no cut-off is given here.

The subject of test [1] is Aedes aegypti. In words: Larvicidal activity against fourth instar larvae of Aedes aegypti assessed as mortality after 48 hrs. The test is classed as functional.
The subject of test [2] is Aedes aegypti. The experiment in a line: Larvicidal activity against fourth instar larvae of Aedes aegypti assessed as induction of alterations in pigmentation pattern at 100 ppm after 24 hrs by microscopic analysis. Format: functional, organism-based.

Regarding `COC(=O)CCCc1nc(-c2ccccc2)no1`, in test [1], the median lethal concentration (LC50) is 59.9 µg/mL (≈ 243 µM).
On the same count and under the same terms, to `O=C(O)CCc1nc(-c2ccc(F)cc2)no1` belongs 81.2 µg/mL (≈ 344 µM).
Same read-out and setting: the value for `Cc1ccc(-c2noc(CC(=O)O)n2)cc1` was 92.3 µg/mL (≈ 423 µM).
As to `O=C(O)CCc1nc(-c2ccccc2)no1`, the 50% lethal concentration (LC50) in test [1] is 98.6 µg/mL (≈ 452 µM).
Same read-out and setting: to `O=C(O)Cc1nc(-c2ccc(Br)cc2)no1` belongs 67.9 µg/mL (≈ 240 µM); to `O=C(O)CCc1nc(-c2ccc(Cl)cc2)no1`, 28.1 µg/mL (≈ 111 µM).
On the same count and under the same terms, the value for `Cc1cccc(-c2noc(CCC(=O)O)n2)c1` was 63.8 µg/mL (≈ 275 µM).
As for `O=C(O)CCc1nc(-c2ccc(Br)cc2)no1`, the median lethal concentration (LC50) in test [1] turned out to be 15.2 µg/mL (≈ 51.2 µM). Further, the outcome in test [2] was Active.
For the compound `COC(=O)CCc1cc(-c2ccccc2)no1`, the LC50 in test [1] amounted to 13.2 µg/mL (≈ 57.1 µM). The result in test [2] was Active.
On to `O=C(O)CCCc1nc(-c2ccc(Br)cc2)no1`, for which, in test [1], the median lethal concentration (LC50) was determined as 10.6 µg/mL (≈ 34.1 µM).
The same measure, in the same setting: to `COC(=O)CCCc1nc(-c2ccc(Cl)c(Cl)c2)no1` belongs 6.8 µg/mL (≈ 21.6 µM); to `COc1ccc(-c2noc(CCC(=O)O)n2)cc1`, 71.5 µg/mL (≈ 288 µM).
In the case of `O=C(O)CCCc1nc(-c2ccc(Cl)cc2)no1`, in test [1], the 50% lethal concentration (LC50) is 34.9 µg/mL (≈ 131 µM).
On the same count and under the same terms, to `O=C(O)Cc1nc(-c2ccc(Cl)cc2)no1` belongs 49.3 µg/mL (≈ 207 µM); to `O=C(O)CCCc1nc(-c2ccccc2)no1`, 92.7 µg/mL (≈ 399 µM).
Take `OCCCc1cc(-c2ccccc2)no1`: the LC50 in test [1] is more than 100 µg/mL.
Turning to `O=C(O)CCCc1nc(-c2ccc(I)cc2)no1`, in test [1], the median lethal concentration (LC50) was found to be 16.2 µg/mL (≈ 45.2 µM).
For `COc1ccc(-c2noc(CCCC(=O)O)n2)cc1`, the LC50 in test [1] was more than 100 µg/mL.
On the same count and under the same terms, to `O=C(O)Cc1nc(-c2ccccc2)no1` belongs more than 100 µg/mL.
As to `CC(=O)CCc1nc(-c2ccccc2)no1`, the LC50 in test [1] is more than 100 µg/mL.
Still for that read-out and setting: the value for `O=C(O)CCCc1nc(-c2ccc3c(c2)OCO3)no1` was 72.9 µg/mL (≈ 264 µM); that for `COC(=O)CCc1nc(-c2ccccc2)no1` was 30.6 µg/mL (≈ 132 µM); that for `Cc1ccc(-c2noc(CCC(=O)O)n2)cc1` was 65.8 µg/mL (≈ 283 µM).
Regarding `O=C(O)CCc1nc(-c2ccc([N+](=O)[O-])cc2)no1`, the 50% lethal concentration (LC50) in test [1] is 50.5 µg/mL (≈ 192 µM).
For `O=C(O)CCc1cc(-c2ccccc2)no1`, in test [1], the 50% lethal concentration (LC50) amounted to 82.8 µg/mL (≈ 381 µM). Further, the result in test [2] was Active.
Regarding `Cc1ccccc1-c1noc(CCC(=O)O)n1`, in test [1], the 50% lethal concentration (LC50) was 70.9 µg/mL (≈ 305 µM).
On the same count and under the same terms, to `Cc1cccc(-c2noc(CCCC(=O)O)n2)c1` belongs 75.9 µg/mL (≈ 308 µM).
